In ChEMBL document CHEMBL6153156, “Potential of Histone Deacetylase 6 Inhibitors as a Treatment of Neurodegenerative Diseases” (ACS Med Chem Lett, 2025) one finds inhibition data, which are given here for 14 compounds.

The experiment concerns the target T1, Protein deacetylase HDAC6 (Homo sapiens) (UniProt Q9UBN7).
T1 sequence (whole entry): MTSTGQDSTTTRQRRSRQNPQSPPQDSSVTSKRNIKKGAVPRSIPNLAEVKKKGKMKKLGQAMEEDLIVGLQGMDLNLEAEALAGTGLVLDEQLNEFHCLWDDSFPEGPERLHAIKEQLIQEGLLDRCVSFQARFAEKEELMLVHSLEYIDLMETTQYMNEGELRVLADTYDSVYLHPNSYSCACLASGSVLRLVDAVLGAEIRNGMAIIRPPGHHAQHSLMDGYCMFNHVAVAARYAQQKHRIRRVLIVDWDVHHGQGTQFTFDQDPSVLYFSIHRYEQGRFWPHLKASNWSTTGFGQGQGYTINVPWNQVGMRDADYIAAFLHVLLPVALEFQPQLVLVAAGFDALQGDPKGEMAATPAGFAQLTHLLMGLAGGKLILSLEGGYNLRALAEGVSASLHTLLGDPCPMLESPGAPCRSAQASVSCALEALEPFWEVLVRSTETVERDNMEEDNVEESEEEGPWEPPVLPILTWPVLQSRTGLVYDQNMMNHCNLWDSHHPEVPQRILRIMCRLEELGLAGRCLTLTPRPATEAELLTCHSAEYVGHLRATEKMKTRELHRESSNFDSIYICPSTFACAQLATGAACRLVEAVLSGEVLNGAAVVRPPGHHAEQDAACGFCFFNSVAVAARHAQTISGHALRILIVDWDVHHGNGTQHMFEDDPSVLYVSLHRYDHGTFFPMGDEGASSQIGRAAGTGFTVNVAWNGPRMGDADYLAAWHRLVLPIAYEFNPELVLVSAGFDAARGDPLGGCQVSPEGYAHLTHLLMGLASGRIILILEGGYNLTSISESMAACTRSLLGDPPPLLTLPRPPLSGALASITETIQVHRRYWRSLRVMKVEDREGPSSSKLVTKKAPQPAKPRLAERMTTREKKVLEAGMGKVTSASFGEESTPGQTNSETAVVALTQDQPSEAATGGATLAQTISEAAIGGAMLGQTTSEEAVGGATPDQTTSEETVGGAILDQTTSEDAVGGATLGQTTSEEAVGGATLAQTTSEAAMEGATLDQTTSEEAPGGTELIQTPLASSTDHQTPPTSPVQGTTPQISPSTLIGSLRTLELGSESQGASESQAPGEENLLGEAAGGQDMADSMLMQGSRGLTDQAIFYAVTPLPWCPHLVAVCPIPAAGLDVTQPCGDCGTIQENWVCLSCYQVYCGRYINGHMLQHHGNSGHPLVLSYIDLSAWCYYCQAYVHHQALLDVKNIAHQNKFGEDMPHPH
The experiment is described as follows: Inhibition of full length HDAC6 (unknown origin) extracted from Sf9 insect cells at 10 uM preincubated for 60 mins followed by substrate addition and measured after 20 mins by luminescence based HDAC-GloTM I/II assay relative to control. It is filed as cell-free. As to conditions: time 80.0 min.

Regarding `O=C1c2cc(-c3nnc(C(F)F)o3)ccc2CN1[C@@H](c1ccccn1)[C@H](O)c1ccccn1`, the inhibition came out at 100%. Regarding `O=C1c2cc(-c3nnc(C(F)F)o3)ccc2CN1[C@H](C1CC1)[C@@H](O)c1cccc(F)c1`, the inhibition was determined as 100%.

For the compound `O=C1c2cc(-c3nnc(C(F)F)o3)ccc2CN1[C@H](c1cccnn1)[C@@H](O)c1cccc(Cl)c1`, the inhibition was determined as 101%. With `O=C1c2cc(-c3nnc(C(F)F)o3)ccc2CN1[C@H](c1ccccn1)[C@@H](O)c1ccccn1`, the inhibition was 101%. The same measure for `O=C1c2cc(-c3nnc(C(F)F)o3)ccc2CN1[C@H](c1ccc(F)cc1)[C@@H](O)c1ccc(F)nc1`: 99%.

On to `O=C1c2cc(-c3nnc(C(F)F)o3)ccc2CN1[C@H](c1cnccn1)[C@@H](O)c1cccc(Cl)c1`, for which the inhibition turned out to be 100%.

`O=C1c2cc(-c3nnc(C(F)F)o3)ccc2CN1[C@H](C1CC1)[C@@H](O)c1ccc(F)cn1`: the inhibition worked out at 100%. With `O=C1c2cc(-c3nnc(C(F)F)o3)ccc2CN1[C@H](c1ccc(F)cc1)[C@@H](O)C1CCOCC1` (racemic), the inhibition was 99%. Take `O=C1c2cc(-c3nnc(C(F)F)o3)ccc2CN1[C@H](C1CC1)[C@@H](O)c1ncccn1`: the inhibition came to 96%.

`O=C1c2cc(-c3nnc(C(F)F)o3)ccc2CN1[C@H](c1cccc(F)c1)[C@@H](O)c1ccccn1` (racemic): the inhibition was 100%.

For `O=C1c2cc(-c3nnc(C(F)F)o3)ccc2CN1[C@H](c1ccccn1)[C@@H](O)c1ccc(C(F)(F)F)cn1`, the inhibition turned out to be 99%. Turning to `O=C1c2cc(-c3nnc(C(F)F)o3)ccc2CN1[C@H](C1CCC(F)(F)CC1)[C@@H](O)c1ccc(F)nc1` (racemic), the inhibition was 100%. Take `O=C1c2cc(-c3nnc(C(F)F)o3)ccc2CN1[C@H](c1ccc(F)c(F)c1)[C@@H](O)c1ccccn1`: the inhibition was found to be 99%.

`O=C1c2cc(-c3nnc(C(F)F)o3)ccc2CN1[C@H](C1CC1)[C@@H](O)c1ccccn1`: the inhibition stood at 100%.
